Data published in article PMC5162400, “Discovery of novel inhibitors disrupting HIF-1α/von Hippel–Lindau interaction through shape-based screening and cascade docking” (PeerJ, 2016).

Tests used:
[1] = target: T1, pVHL (Homo sapiens, UniProt P40337); parameters: method as in earlier work; conditions: native ligands of pVHL crystal complexes, labelled by PDB ID, ref Buckley et al., 2012b, Van-Molle et al., 2012a, Dias et al., 2014, Galdeano et al., read-out: Kd of native ligand; cited from earlier work
[2] = target: T1, pVHL; assay: Fluorescence polarization binding assay (FAM-DEALA-Hyp-YIPD displacement from V1-213CB); conditions: inhibition of HIF-1α/pVHL interaction, mean ± SEM
Procedure: The fluorescence intensities parallel (Intparallel) and perpendicular (Intperpedicular) to the plane of excitation were measured in black 96-well NBS assay plates (Greiner Microlon) at room temperature. The plate was then shaken for 1 min and centrifuged for 1 min. […] The inhibition percentage was determined by normalizing to maximum and minimum polarization and graphed against the log [VL].

T1 sequence (P40337 whole entry): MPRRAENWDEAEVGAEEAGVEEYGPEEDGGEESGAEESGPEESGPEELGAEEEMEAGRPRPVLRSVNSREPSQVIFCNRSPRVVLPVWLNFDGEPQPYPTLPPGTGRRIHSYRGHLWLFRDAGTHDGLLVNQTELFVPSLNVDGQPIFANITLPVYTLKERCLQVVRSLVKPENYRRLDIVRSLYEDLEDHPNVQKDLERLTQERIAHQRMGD
T1 sequence (Q15369 whole entry partner): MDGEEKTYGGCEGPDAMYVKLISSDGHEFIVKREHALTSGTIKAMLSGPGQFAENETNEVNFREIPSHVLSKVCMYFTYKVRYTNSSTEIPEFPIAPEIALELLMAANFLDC
T1 sequence (Q15370 whole entry partner): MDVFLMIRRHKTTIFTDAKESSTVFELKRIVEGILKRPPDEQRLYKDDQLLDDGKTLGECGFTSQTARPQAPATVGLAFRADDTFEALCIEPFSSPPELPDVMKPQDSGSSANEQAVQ

Compound | Kd [1] [µM] | IC50 [2] [µM]
Cc1ncsc1-c1ccc(CNC(=O)C2CC(O)CN2C(=O)c2cccc(N)c2C)cc1 (stereo not drawn) [Compound 4B9K] | 0.7 | –
c1ccc(-c2ccc(-c3nc4ccc(-c5ccccc5)cc4o3)cc2)cc1 [Compound 6] | – | 102 ± 6.13
CC1=NN(c2ccccc2)C(=O)/C1=N\Nc1ccc(N2CCOCC2)cc1 [Compound 9] | – | 2 ± 0.14
